Experiments:
[1] = previous study; cited from earlier work
Escherichia coli 1-894-1 = test: microbe, parasite or virus in culture
Procedure: Isolated colonies of Escherichia coli 1-894-1 (ATCC, Manassas, Virginia, USA) were picked from the bacterial culture plate and inoculated into 4-5 mL of TSB liquid medium for all bacterial strains. TSB liquid medium was prepared by dissolving a mixture of 17.0 g pancreatic digest of casein, 3.0 g papaic digest of soybean, 2.5 g dextrose, 5.0 g sodium chloride, and 2.5 g dipotassium phosphate in a final volume of 1,000 mL of distilled water, stirring for at least for 20 minutes, and then sterilizing under high pressure ([…] for 20 minutes at 121° C.). To achieve log phase growth, bacterial cultures were incubated at 37° C. for 2-6 hours based on the 0.5 McFarland standard, which corresponds to approximately 1.5×10^8 CFU/mL when the optical density of a bacterial suspension ranged from 0.08 to 0.1. A 1:20 dilution was made by adding 2.0 ml of the original suspension to 38 mL of PBS buffer, and then a 1:10 dilution was prepared by adding 0.01 ml to each well to obtain a final concentration of about 5.0×10^5 CFU/mL.
(§1) To assess the effectiveness of KS against bacteria and fungi, several tests were conducted in accordance with the Antimicrobial Susceptibility Testing Standards outlined by the Clinical and Laboratory Standards Institute (Malvern, Pennsylvania, USA) (CLSI Mo2-A12, 2015) with some modifications, including the minimal inhibitory concentration (MIC), and an agar diffusion disc test. Potassium sorbate solutions with concentrations ranging from 0.5 to 8.0 mg/ml were combined with bacterial cells (10^5 CFU/mL) and fungal spores (105 conidia/mL) in TSB medium with a pH adjusted to 5.5 for bacteria and in Potato Dextrose Broth (“PDB”) medium (with an original pH of 5.5) for fungi. They were then incubated at 37° C. (for E. coli) for 24 hours and 25° C. (for P. chrysogenum) for 6 days. To determine the minimum inhibitory concentration (“MIC”) of antimicrobial substances, optical density (“OD”) at 600 nm was measured through a Bioscreen C device (Oy Growth Curves Ab Ltd., Turku, Finland) using turbidimetric measurements. The MIC refers to the lowest concentration of antimicrobial that prevents visible growth of microorganisms after incubation. For fungal growth, the MIC was determined based on the inhibition of mycelial growth. The negative control was added the same volume of deionized water without potassium sorbate to observe the growth of bacteria and fungi. Furthermore, to determine assess the survivability of cells and spores when exposed to potassium sorbate for 18 hours, microbial counts were expressed as the logarithm of colony forming units per ml (log CFU/mL). Each measurement was performed in triplicate.

Penicillium chrysogenum = test: microbe, parasite or virus in culture
Procedure: as §1

P. chrysogenum = conditions: for spores of P. chrysogenum: concentrations greater than 4 mg/ml, after 6 days of incubation
Procedure: as §1

bacteria and fungi = conditions: against bacteria and fungi
Procedure: as §1

E. coli = conditions: concentration of >3 mg/ml; 24 hours at 37° C.
[2] = tested on: E. coli O157:H7 (ATCC 35150); conditions: separate study; cited from earlier work
Penicillium italicum = conditions: cited from earlier work
[3] = room temperature; cited from earlier work

## C/C=C/C=C/C(=O)[O-].[K+] [trans, trans-potassium sorbate]
[1]
  antimicrobial activity compared with the mixture of isomers: higher antimicrobial activity than the mixture of isomers

## C/C=C/C=C\C(=O)[O-].[K+] [TAL-derived KS, cis-2, trans-4 potassium sorbate]
Escherichia coli 1-894-1; concentration of 2 mg/ml
  inhibitory effect on the growth of E. coli: mild inhibitory effect
Escherichia coli 1-894-1; concentration of 4 mg/ml
  inhibitory effect on the growth of E. coli: significant inhibitory effect
Penicillium chrysogenum
  antifungal activities compared with commercial KS: same antifungal activities as commercial KS
Penicillium chrysogenum; PDB medium pH 5.5, 25° C., 6 days
  MIC against P. chrysogenum (preventing mycelial growth): 6 mg/mL
P. chrysogenum; concentration of 6 mg/mL, 6 days of incubation
  inhibition of P. chrysogenum growth as compared to C-KS: significant inhibition
P. chrysogenum
  spores of P. chrysogenum: significantly decreased
Bacteria and fungi
  antimicrobial activity compared with commercial KS: comparable antimicrobial activities
E. coli
  inhibitory effects against E. coli (CFU count): significant inhibitory effects

## C/C=C/C=C/C(=O)[O-].[K+] [commercial KS, trans, trans-2,4-hexadienoic acid potassium salt]
Escherichia coli 1-894-1; Escherichia coli, 18941, 24 h, pH 5.5, read-out: MIC against E. coli
  MIC: 2000 to 4000 µg/mL
Escherichia coli 1-894-1; concentration of 2 mg/ml
  inhibitory effect on the growth of E. coli: mild inhibitory effect
Escherichia coli 1-894-1; concentration of 4 mg/ml
  inhibitory effect on the growth of E. coli: significant inhibitory effect
Penicillium chrysogenum; Penicillium chrysogenum, 144 h, pH 5.5, read-out: MIC against P. chrysogenum (preventing mycelial growth)
  MIC: 8000 µg/mL
P. chrysogenum
  spores of P. chrysogenum: significantly decreased
E. coli
  inhibitory effects against E. coli (CFU count): significant inhibitory effects

## C/C=C/C=C/C(=O)[O-].[K+] [KS, potassium sorbate]
[2]
  MIC against E. coli O157:H7 (ATCC 35150): 1.6 mg/mL
Penicillium italicum
  MIC against Penicillium italicum: 15 mg/mL
[3]
  solubility in water: 58.5 g per 100 ml

Reference: patent publication US20250197337A1, “CONVERSION OF TRIACETIC ACID LACTONE TO POTASSIUM SORBATE” (priority 2023, published 2025)
